For data set [1], the system named is platelets. The experiment in a line: Platelet aggregation of small cyclic disulfide and lactam peptides. In kind it is cell-based. As to conditions: for potency against platelet aggregation relative to 8×: comparator 8×. The method, then:
(§1) Platelet aggregation was assessed using the method of Born, Nature 194:927-929 (1962), incorporated herein by reference. Briefly, the change in light transmission was measured through a stirred suspension of platelets in an aggregometer (Model 400 VS, Chrono-Log, Havertown, Pa., USA). […] In studies using thrombin, the PRP was gel-filtered on Sepharose 2B in divalent ion-free Tyrode's solution containing 2% BSA. For all studies, the reference standard was platelet-poor plasma, which was obtained by centrifuging PRP at 1000×g for 5 min.
All aggregation studies were performed at 37° C. with a constantly stirred suspension of 3×10^8 platelets/mL. (Platelet count was determined with the aid of a hemacytometer.) Peptides and stimulants were added to these suspensions in 1% dilutions. The PRP and gel-filtered platelets were used within three hours from the time of blood collection.

Data set [2] concerns platelets. Put plainly: Ex vivo inhibition of platelet aggregation (Table IV). In kind it is in vivo. The following applies: dose per code. As to the method:
Using the method described in Example V to measure ex vivo inhibition of platelet aggregation and the method described in Example VII to measure bleeding, four additional peptides were tested. These peptides included 11J, 11Q, 11K and 11V.

The next data set concerns the target GP IIb/IIIa (Homo sapiens, UniProt P05106+P08514). Put plainly: Differential inhibition of ligand binding to GP IIb/IIIa. As to conditions: fibrinogen vs fibronectin and vitronectin.
Data set [3] concerns platelets. Put plainly: Ex vivo platelet aggregation in canine coronary thrombosis model. Also on record: species or system dog. The method, then:
For all ex vivo studies (see FIG. 3), control aggregation values were standardized to the percentages of light transmission observed in PRP and PPP samples (0% and 100%, respectively).
(§2) Animals were randomly assigned to two treatment groups: vehicle control (i.e., normal saline) or RGD peptides at various concentrations. Peptides were administered intra-atrially in both bolus and continuous injections. Each bolus injection consisted of 0.5 to 10 mg/kg and was administered 15 minutes before application of the current. A continuous infusion of the same peptide was then started immediately after completion of this initial injection. Animals received a 25 μg/kg/min to 200 μg/kg/min infusion. The anti-thrombotic effects of the peptides were monitored until 30 minutes after the occurrence of a persistent, occlusive thrombus or five hours after the initiation of electrical stimulation (whichever resulted first). If an occlusive thrombus had not developed within four hours after the initiation of current, the peptide infusion was stopped.
Platelet counts and ex vivo aggregation studies were performed one hour before and 1, 3, and 5 hours after application of anodal direct current.
Platelet aggregation was also determined ex vivo at one, three, and five hours after current application. For these studies, arachidonic acid, or collagen was again used to stimulate the platelets.

The next data set deals with coronary thrombosis. The experiment in a line: Electrically induced canine coronary thrombosis, time to full occlusion. In kind it is in vivo, dog. The method, then: Male mongrel dogs weighing 14 to 20 kg were selected based on proper aggregation of their platelets in response to arachidonic acid, collagen, and adenosine disphosphate (ADP) and based on similar weights and hemodynamic properties.
Before surgery, the animals were anesthetized with sodium pentobarbital (30 mg/kg, i.v.) and then intubated and ventilated on room air with positive pressure using a respirator (Harvard Apparatus, S. Natick, Mass.) at a volume of 30 ml/kg and a frequency of 12 breaths/min. Surgery, performed under aseptic conditions, was begun with the placement of cannulae into the left carotid artery and jugular vein for monitoring arterial blood pressure (Statham P23 pressure transducer, Gould, Inc., Cardiovascular Products, Oxnard, Calif.) and administering intravenous fluids.
The heart was exposed via a left thoracotomy through the 5th intercostal space. A 2-cm segment of the left circumflex coronary artery (LCCA) was isolated from surrounding tissue by blunt dissection. […] The intra-coronary electrode was constructed by attaching a 25-gauge hypodermic needle tip to a 30-gauge Teflon-insulated silver-coated copper wire. The mechanical occluder was constructed of stainless steel in a C shape with a Teflon screw (2 mm diameter) on top. It was adjusted to control vessel circumference and decrease the reactive hyperemic flow due to a 10-sec (full) occlusion by 50-70% without affecting basal coronary blood flow (FIG. 1). A monopolar epicardial electrode was sutured to the surface of the ventricle in the region of LCCA distribution to monitor ischemic changes in the electrocardiogram (ECG). The left atrium was cannulated with polythylene tubing for administration of the peptide. Continuous recordings of blood pressure, limb lead II ECG, epicardial electrogram, and mean and phasic LCCA blood flow were obtained on a Model 7 polygraph (Grass Instrument Co., Quincy, Mass.).
One hour after the completion of surgery, a 100 micro-amp continuous anodal direct current delivered from a 9 volt nickel-cadmium battery was applied to the intimal surface of the LCCA. The anode of the battery was in series with a 250,000 ohm potentiometer and the intraluminal coronary artery electrode. The electric circuit was completed by placing the cathode in a subcutaneous site. Electrical stimulation was applied for three hours. At the conclusion of each experiment, the heart was fibrillated electrically and quickly removed, and the LCCA was dissected free as far as possible to verify he position of the implanted anodal electrode.
as §2
Coronary thrombosis was quantified as the time to full occlusion. The effects of the various peptide treatments on coronary thrombosis is illustrated in FIG. 4.

In data set [4] the test system is Gore-tex vascular graft thrombosis. The experiment in a line: Platelet and fibrinogen uptake by Gore-Tex grafts, baboon ex vivo shunt. In kind it is in vivo. As to the method:
Adult male baboons (weighing 16 to 25 kg) were used in these studies. These were sedated with ketamine hydrochloride (200 to 250 mg intramuscular injection) and maintained under anesthesia with sodium pentobarbital (50 to 75 mg administered intravenously as necessary).
Twenty-four hours before the ex vivo shunt was established, platelets were isolated from 500 ml of blood from the test animal and labelled with ca. of 500 microcuries of indium-111 oxine (Medi+Physics, Emeryville, Calif.), which irreversibly and specifically binds to platelets with an efficiency of 50%. Immediately after labelling, these platelets were then injected back into the animal and allowed to circulate for 24 hours. Immediately before the start of the study, fibrinogen that had been isolated from the animal and labelled with iodine-131 (DuPont Nuclear, Boston, Mass.) was also injected back into the animal. Also at this time, baseline determinations of the clotting and template bleeding times were made, and blood samples were drawn for hematology studies.
To establish the ex vivo shunt, the femoral artery and vein were percutaneously cannulated with introducer catheters (KMA Inc., Mansfield, Mass.). The catheters were then connected to medical-grade, heparin-coatedsilastic tubing (2.59 mm internal diameter, (Extracorporeal Medical Specialties, Inc., King of Prussia, Pa.). […] Finally, a 5 cm-long test segment of a 4 mm (internal diameter) vascular graft was inserted at the apex of the circuit. The graft used in these studies was Gore-tex (expanded polytetrafluoroethylene, (W. L. Gore and Associates, Inc., Flagstaff, Ariz.). An electromagnetic flow probe was then inserted into the tubing circuit to measure blood flow, which was maintained at 100 ml/min. by varying the resistance imported by a partially occluding screw clamp that was distal to the probe. Finally, a 5 cm-long test segment of a 4 mm (internal diameter) vascular graft was inserted at the apex of the circuit. The graft used in these studies was Gore-tex (expanded polytetrafluoroethylene, W. L. Gore and Associates, Inc., Flagstaff, Ariz.).
Platelet deposition onto the grafts was monitored by dynamic scanning with a gamma camera (Sigma 400, Ohio Nuclear, Inc., Sohon, Ohio), which detects the gamma radiation emitted by the ^111 indium-labelled platelets. Once the circuit was in place, the animal was placed under this camera, and blood flow was initiated. Scans were then taken at the rate of one frame per two minutes for two hours. The data from these scans were collected on a dedicated Digital MDA computer (Maynard, Mass.). […]

Data set [5] has as its system platelets. Put plainly: Ex vivo platelet aggregation in baboon PRP. The following applies: animal 2; PRP at 0, 1, 2 h. The method, then:
At one- and two-hour time points, template bleeding times were measured, and blood samples were drawn to assess the hematology aggregation studies. Platelet aggregation studies were performed as described in Example V using ADP as the stimulus.
In addition, platelet aggregation studies were conducted on PRP derived from the second animal. Whole blood was drawn at three time points (0, 1 and 2 hours) of both control and experimental shunts.

For data set [6], the system named is platelets. Format: cell-based, human. As to conditions: ADP 10 μM, citrated PRP; unit only in text b178 (printed μm); read-out: ADP-Stimulated Aggregation.
Procedure: Platelet aggregation assays were performed following the methods of this Example or those of Example IX.G. Platelet aggregation was assessed using the method of Born, Nature 194:927-929 (1962), incorporated herein by reference. Briefly, the change in light transmission was measured through a stirred suspension of platelets in an aggregometer (Model 400 VS, Chrono-Log, Havertown, Pa., USA). Studies employing ADP were performed with platelet-rich plasma (PRP), which was obtained by low-speed centrifugation (200×g for 10 min.) of whole blood freshly drawn into trisodium citrate (at a final concentration of 11 mm). In studies using thrombin, the PRP was gel-filtered on Sepharose 2B in divalent ion-free Tyroda's solution containing 2% BSA. For all studies, the reference standard was platelet-poor plasma, which was obtained by centrifuging PRP at 1000×g for 5 min.
All aggregation studies were performed at 37° C. with a constantly stirred suspension of 3×10^8 platelets/ml. (Platelet count was determined with the aid of a hemacytometer.) Peptides and stimulants were added to these suspensions in 1% dilutions. […]
For data set [7], the system named is platelets. Put plainly: Thrombin-stimulated platelet aggregation (Table I). Format: cell-based, human. As to conditions: thrombin 2 U/ml, gel-filtered platelets; unit only in text b178 (printed μm). The method, then:
as §1, with “Platelet aggregation assays were performed following the methods of this Example or those of Example IX.G. Platelet” for “Platelet”, “Tyroda's” for “Tyrode's”
All aggregation studies were performed at 37° C. with a constantly stirred suspension of 3×10^8 platelets/ml. (Platelet count was determined with the aid of a hemacytometer.) Peptides and stimulants were added to these suspensions in 1% dilutions. The PRP and gel-filtered platelets were used within three hours from the time of blood collection.
Peptide anti-aggregation potencies were determined from dose-responsive curves for the inhibition of the maximum aggregation responses stimulated by physiologic doses of ADP (10 μm) and thrombin (2 U/ml).

Data set [8] is described as follows: Peripheral blood flow (PBF) by laser doppler probe, rabbit ear. In kind it is in vivo. As to conditions: time 10 min; bolus dose per drug. The method, then:
In an alternative series of experiments, (Table 2) PBF was measured quantitatively with a laser dopler flow probe (Perimed). The probe was positioned securely over the vascular bed of one ear and flow monitored continuously. Each inhibitor was infused and CBT measured in the opposing ear. No arterial catheter was placed for blood sampling, consequently XPA […] in these animals.
As positive control, epinephrine was infused intravenously (1 mg over 2 minutes) at 60 minutes. The resulting vasoconstriction reduced flow to near 0 flow units within 5 minutes.

Setting [9] is: animal 1, two bolus IV injections of 10 mg/kg.
Where [10] appears, read: animal 2, 10 mg/kg bolus IV plus 10 mg/kg/hr infusion for 2 h.

Like-named read-outs stand apart in the source and are kept apart here.

Chain of GP IIb/IIIa (P08514 32-887 limits assumed): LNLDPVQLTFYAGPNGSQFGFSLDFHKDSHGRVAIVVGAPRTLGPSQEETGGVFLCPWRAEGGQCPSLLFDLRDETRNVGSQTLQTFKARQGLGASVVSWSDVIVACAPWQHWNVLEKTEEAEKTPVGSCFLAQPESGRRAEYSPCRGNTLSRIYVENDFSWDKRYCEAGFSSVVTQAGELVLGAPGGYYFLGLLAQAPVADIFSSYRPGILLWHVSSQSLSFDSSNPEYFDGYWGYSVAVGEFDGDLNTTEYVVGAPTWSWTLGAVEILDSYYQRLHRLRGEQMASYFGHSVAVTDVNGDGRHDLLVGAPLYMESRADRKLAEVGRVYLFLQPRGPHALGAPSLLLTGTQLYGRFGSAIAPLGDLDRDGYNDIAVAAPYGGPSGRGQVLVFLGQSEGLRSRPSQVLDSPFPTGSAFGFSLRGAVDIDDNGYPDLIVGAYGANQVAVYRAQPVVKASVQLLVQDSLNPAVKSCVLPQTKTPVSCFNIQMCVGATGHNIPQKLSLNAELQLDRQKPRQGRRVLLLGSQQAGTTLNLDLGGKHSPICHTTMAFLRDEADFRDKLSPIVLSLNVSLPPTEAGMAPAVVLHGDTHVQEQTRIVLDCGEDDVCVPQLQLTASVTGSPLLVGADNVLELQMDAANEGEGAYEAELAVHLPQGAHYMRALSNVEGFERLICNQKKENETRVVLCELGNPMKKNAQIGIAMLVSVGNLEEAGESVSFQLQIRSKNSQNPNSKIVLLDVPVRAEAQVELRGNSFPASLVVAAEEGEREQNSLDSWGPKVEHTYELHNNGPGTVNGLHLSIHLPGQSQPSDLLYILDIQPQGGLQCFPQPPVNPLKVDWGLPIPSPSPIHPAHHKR
Chain of GP IIb/IIIa (P08514 891-1039 partner limits assumed): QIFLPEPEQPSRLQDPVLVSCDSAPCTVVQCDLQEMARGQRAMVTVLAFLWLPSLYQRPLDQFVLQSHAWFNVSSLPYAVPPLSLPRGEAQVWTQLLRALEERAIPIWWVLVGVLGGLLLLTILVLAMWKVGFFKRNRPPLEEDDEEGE
Chain of GP IIb/IIIa (P05106 27-788): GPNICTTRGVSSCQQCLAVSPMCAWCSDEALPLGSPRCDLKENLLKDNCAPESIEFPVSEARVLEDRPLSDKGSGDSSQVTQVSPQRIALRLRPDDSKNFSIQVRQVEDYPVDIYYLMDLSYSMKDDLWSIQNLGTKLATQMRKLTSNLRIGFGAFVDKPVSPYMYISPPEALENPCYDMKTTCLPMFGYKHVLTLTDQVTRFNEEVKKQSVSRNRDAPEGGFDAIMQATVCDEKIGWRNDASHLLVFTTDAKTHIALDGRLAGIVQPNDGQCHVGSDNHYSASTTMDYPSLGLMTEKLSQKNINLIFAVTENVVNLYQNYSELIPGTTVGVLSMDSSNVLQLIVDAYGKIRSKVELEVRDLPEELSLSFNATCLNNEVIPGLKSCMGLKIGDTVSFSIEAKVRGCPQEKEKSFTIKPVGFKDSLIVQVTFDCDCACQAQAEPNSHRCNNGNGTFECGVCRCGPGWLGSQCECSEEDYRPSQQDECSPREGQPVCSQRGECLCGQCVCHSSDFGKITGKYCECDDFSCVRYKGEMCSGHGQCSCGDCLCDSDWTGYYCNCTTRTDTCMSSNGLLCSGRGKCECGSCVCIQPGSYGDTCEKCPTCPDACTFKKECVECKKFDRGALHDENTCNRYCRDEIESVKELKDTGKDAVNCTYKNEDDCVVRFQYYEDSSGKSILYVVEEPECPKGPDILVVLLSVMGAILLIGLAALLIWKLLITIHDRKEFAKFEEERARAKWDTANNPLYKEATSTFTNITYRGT

Take (Myr)RGD(O-Me-Y)RC-NH2 [16A]: in the data set with platelets [1], the “potency against platelet aggregation relative to 8×” value is recorded as “about two-fold more reactivity than 8×”. In the data set with platelets [1] (read-out: inhibited platelet aggregation with an IC50), the IC50 was 0.12 µM.

Consider Ac-CNPKGD(Y-OMe)RC-NH2 [11Q], for which the “ex vivo inhibition of platelet aggregation (%)” value (from here on “ex vivo inhibition … (%)”) with platelets [2] is recorded as greater than 95%.

As to Ac-CNPRGD(Y-OMe)(Nle)C-NH2 [11V], the “ex vivo inhibition … (%)” value in the data set on platelets [2] was greater than 98%.

On to Ac-CNPRGD(Y-OMe)AC-NH2 [11K], for which the “ex vivo inhibition … (%)” value in the data set with platelets [2] is given as greater than 98%.

As to Ac-CNPRGD(Y-OMe)EC-NH2 [11J], in the data set with platelets [2], the “ex vivo inhibition … (%)” value is greater than 98%.

Take Ac-CNPRGD(Y-OMe)RCNH2 [8x]: the “differential inhibition of binding of ligands to GP IIb/IIIa” value at GP IIb/IIIa is “inhibits the binding of fibrinogen to GP IIb/IIIa more than it inhibits the binding of fibronectin and vitronectin to the same integrin”.

With G(Pen)GHRGDLRCA [2G], the “ex vivo ADP-stimulated aggregation” value with platelets [3] (10 mg/kg, 1, 3, 5 h) is “substantially inhibited”. Besides, the “time to full occlusion (coronary thrombosis)” value (from here on “time to full occlusion”) in the data set with coronary thrombosis (10 mg/kg bolus plus infusion) was “did not significantly influence this frequency”. Further, in [4] (setting [9]), the “reduction in 111In-platelet uptake by graft” value is given as 90% and the “reduction in 131I-fibrinogen uptake by graft” value stood at 79%. Moreover, in data set [4] (setting [10]), the “reduction in labelled fibrinogen uptake by graft” value was found to be 78% and the “reduction in labelled platelet uptake by graft” value is listed as 84%. Further, the “ex vivo platelet response to ADP (10 μM)” value in the data set with platelets [5] is reported as “completely unresponsive”.

As to G(dPen)GHRGDLRCA, the IC50 in the data set with platelets [6] worked out at 5.28 ± 0.7 µM.

On to R2 (Pen)GHGDTPCA, for which the IC50 with platelets [7] came to 2.7 µM; in the data set with platelets [6], 8.2 µM.

Regarding R(Pen)GHRGDWRCR [4Q], the “ex vivo platelet activation by collagen” value in the data set on platelets [3] (5 mg/kg) was “near-maximal inhibition”. In addition, in the data set with platelets [3] (5 mg/kg, all three time points), the “ex vivo platelet response to ADP and AA” value is listed as “completely unresponsive”. Moreover, the “ex vivo platelet responsiveness” value in the data set with platelets [3] (10 mg/kg, five-hour point) is recorded as “platelet responsiveness was slightly improved”. Also, in the data set on platelets [3] (10 mg/kg, one- and three-hour time points), the “ex vivo platelet aggregation, all three stimuli” value was “prevented platelet aggregation”. In addition, the “time to full occlusion” value is “significantly prolonged the time to occlusion” in the data set on coronary thrombosis (5 mg/kg) and “completely prevented occlusion” with coronary thrombosis (10 mg/kg bolus plus infusion). For the same substance, the thrombus formation entry in the data set on coronary thrombosis (5 mg/kg, circulating platelet levels one-third of normal) was “able to prevent thrombus formation”. Also, the “PBF (units)” value in [8] is 9 units.

Consider R(Pen)GRGDWPCR [4R], for which the “ex vivo platelet response, all modes of stimulation” value in the data set with platelets [3] (10 mg/kg, all time points) is on record as “unresponsive to all modes of stimulation at all time points”. In addition, the “time to full occlusion” value with coronary thrombosis (3 mg/kg) is on record as “ineffective”; with coronary thrombosis (10 mg/kg bolus plus infusion), “prevented occlusion throughout the duration of the study”.

As to RGD(O-Me-Y)RE-NH2 [21I], in the data set on platelets [1], the “potency against platelet aggregation relative to 8×” value was “about three-fold more reactive than 8×”.

These data come from patent US5780303A, “Method and composition for treating thrombosis” (priority 1995, dated 1998).
